Like-named read-outs stand apart in the source and are kept apart here.
Columns and labels:
[1] = target: T1, ALK (Homo sapiens, UniProt Q9UM73); assay: ALK Kinase Assay (ELISA/TRF, PLC-γ substrate); assay type: biochemical; conditions: read-out: ALK Potency
T1 construct: host or cells: baculovirus expression system
In short: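 Time-resolved fluorescence ELISA using Eu-N1 PT66 antibody to detect phosphorylated PLC-γ (coated at 10 μg/mL). Enzyme at 30 ng/ml ALK; 15 min incubation, 37° C.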

[2] = target: T2, JAK2 (Homo sapiens, UniProt O60674); assay: Recombinant Human JAK2 Kinase Assay (TRF); assay type: biochemical; conditions: read-out: JAK2 Potency
T2 construct: host or cells: baculovirus expression system
T2 sequence (O60674 whole entry): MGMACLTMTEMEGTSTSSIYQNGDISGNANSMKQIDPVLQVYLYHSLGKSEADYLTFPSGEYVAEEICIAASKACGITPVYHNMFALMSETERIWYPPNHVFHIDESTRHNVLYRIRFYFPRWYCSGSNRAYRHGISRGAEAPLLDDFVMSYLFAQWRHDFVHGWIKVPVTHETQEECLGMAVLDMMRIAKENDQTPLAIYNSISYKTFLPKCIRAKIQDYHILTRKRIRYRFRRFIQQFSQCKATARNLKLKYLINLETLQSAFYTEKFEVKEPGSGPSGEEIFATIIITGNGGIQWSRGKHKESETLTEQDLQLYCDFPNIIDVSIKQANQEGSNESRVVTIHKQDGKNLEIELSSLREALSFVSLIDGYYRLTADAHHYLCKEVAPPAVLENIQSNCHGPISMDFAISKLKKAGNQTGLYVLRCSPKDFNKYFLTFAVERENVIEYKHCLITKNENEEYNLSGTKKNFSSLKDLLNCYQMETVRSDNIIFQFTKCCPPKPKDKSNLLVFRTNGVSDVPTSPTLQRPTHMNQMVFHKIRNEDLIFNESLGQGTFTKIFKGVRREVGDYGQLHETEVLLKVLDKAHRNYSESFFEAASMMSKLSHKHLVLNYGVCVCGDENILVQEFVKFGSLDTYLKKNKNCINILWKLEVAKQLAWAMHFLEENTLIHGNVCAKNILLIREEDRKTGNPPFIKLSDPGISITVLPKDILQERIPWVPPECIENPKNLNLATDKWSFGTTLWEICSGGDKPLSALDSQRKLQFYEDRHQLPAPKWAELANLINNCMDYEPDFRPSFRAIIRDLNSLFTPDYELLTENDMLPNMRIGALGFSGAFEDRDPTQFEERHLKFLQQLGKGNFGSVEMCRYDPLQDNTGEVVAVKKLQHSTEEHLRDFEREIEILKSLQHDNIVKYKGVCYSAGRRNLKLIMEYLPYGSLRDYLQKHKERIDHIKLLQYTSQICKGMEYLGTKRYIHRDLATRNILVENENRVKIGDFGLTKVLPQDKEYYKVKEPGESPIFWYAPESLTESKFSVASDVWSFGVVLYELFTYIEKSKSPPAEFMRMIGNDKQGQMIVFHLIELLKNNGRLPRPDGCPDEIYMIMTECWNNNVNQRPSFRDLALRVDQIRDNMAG
Protocol: Compounds were tested for their ability to inhibit the kinase activity of baculovirus-expressed JAK2 using the TRF detection system. […] The plates were coated first with 100 μL/well of 10 μg/mL Neutravidin (Pierce #31000, Rockford, Ill.) in TBS at 37° C. for 2 hours, followed by 100 μL/well of 1 μg/mL 15-mer peptide substrate (biotinyl-amino-hexanoyl-[…]-amide, Infinity Biotech Research and Resource, Aston, Pa.) at 37° C. for another hour. The JAK2 assay mixture (total volume=100 μL/well) consisting of 20 mM HEPES (pH 7.2), 0.2 μM ATP, 1 mM MnCl2, 0.1% BSA, and test compound (diluted in DMSO; 2.5% DMSO final in assay) was then added to the assay plate. Enzyme (15 ng/ml JAK2) was added and the reaction was allowed to proceed at room temperature for 20 minutes. Detection of the phosphorylated product was performed by adding 100 μL/well of Eu—N1 labeled PY100 antibody (PerkinElmer Life Sciences #AD0041, Boston, Mass.).

[3] = ALK kinase inhibition, 1 μM ATP
[4] = JAK2 kinase inhibition, 0.2 μM ATP

T1 sequence (Q9UM73 19-1620): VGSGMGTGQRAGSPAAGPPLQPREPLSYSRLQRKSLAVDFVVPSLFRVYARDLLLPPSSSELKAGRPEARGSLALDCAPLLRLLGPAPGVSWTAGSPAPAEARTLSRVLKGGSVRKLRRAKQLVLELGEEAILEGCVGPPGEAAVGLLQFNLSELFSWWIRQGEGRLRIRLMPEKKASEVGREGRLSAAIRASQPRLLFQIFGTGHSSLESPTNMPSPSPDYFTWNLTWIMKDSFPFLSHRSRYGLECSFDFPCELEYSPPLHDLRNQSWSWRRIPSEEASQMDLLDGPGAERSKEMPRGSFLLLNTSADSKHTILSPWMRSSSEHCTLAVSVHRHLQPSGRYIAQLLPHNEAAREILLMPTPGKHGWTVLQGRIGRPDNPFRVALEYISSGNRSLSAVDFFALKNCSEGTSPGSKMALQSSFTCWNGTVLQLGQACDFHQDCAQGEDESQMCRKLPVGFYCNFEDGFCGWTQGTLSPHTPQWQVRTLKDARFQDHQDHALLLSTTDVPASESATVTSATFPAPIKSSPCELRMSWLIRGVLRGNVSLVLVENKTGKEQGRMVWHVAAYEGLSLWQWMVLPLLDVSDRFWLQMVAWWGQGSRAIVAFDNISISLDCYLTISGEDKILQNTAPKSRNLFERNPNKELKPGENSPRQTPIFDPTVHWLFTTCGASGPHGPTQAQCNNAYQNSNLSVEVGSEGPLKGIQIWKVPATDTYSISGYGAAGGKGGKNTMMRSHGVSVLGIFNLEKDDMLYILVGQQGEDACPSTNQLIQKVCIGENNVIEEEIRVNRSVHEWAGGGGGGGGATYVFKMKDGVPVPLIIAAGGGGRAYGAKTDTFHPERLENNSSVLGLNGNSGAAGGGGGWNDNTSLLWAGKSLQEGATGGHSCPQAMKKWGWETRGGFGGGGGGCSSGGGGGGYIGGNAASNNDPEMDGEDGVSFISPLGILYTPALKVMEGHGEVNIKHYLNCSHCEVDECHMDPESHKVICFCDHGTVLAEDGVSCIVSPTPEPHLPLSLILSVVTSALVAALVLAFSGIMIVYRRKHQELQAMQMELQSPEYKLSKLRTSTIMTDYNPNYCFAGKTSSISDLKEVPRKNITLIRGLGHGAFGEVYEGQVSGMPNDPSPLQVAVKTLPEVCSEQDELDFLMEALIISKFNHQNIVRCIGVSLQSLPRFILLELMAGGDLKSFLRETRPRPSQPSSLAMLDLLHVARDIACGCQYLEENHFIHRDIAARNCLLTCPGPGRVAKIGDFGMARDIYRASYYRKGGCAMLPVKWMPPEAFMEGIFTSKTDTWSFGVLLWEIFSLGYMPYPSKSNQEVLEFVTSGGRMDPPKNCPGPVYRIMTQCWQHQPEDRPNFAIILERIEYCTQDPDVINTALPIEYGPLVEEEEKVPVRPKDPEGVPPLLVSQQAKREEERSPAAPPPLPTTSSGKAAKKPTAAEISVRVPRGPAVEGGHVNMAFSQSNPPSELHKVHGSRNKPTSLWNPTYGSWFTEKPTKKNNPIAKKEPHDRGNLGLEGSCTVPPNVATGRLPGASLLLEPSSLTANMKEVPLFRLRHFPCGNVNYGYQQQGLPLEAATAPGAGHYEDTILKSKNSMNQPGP

| IC50 [1, 3] [nM] | IC50 [2, 4] [nM] | IC50 ([1]; ALK Kinase Inhibition) [nM] | IC50 ([2]; JAK2 Kinase Inhibition) [nM] | SMILES |
| --- | --- | --- | --- | --- |
| < 100 | < 100 |  |  | COc1ccccc1-c1ccc2cnc(Nc3cccc(OCC4CCCN4C)c3)nn12 (centres unmarked) [Example 1006] |
| 100 to 1000 | 100 to 1000 |  |  | COc1cc(N2CCC(N3CCOCC3)C2)ccc1Nc1ncc2ccc(-c3ccccc3OC)n2n1 (racemic) [Example 779, (±)-[2-Methoxy-4-(3-morpholin-4-yl-pyrrolidin-1-yl)-phenyl]-[7-(2-methoxyphenyl)-pyrrolo[2,1-f][1,2,4]triazin-2-yl]-amine] |
| 100 to 1000 | < 100 |  |  | C#CCNC(=O)c1cccc(-c2ccc3cnc(Nc4ccc(N5CCN(C)CC5)cc4)nn23)c1 [Example 1147, 3-{2-[4-(4-Methyl-piperazin-1-yl)-phenylamino]-pyrrolo[2,1-f][1,2,4]triazin-7-yl}-N-prop-2-ynyl-benzamide] |
|  |  | 1000 to 10000 | < 100 | CC(=O)Nc1cccc(Nc2ncc3ccc(-c4cnn(C)c4)n3n2)c1 [Example 1378, N-{3-[7-(1-Methyl-1H-pyrazol-4-yl)-pyrrolo[2,1-f][1,2,4]triazin-2-ylamino]-phenyl}-acetamide] |
|  |  | < 100 | < 100 | CC1(C)C(=O)Nc2ccc(Nc3ncc4ccc(-c5ccccc5N5CCCS5(=O)=O)n4n3)cc21 [Example 1556, 5-({7-[2-(1,1-Dioxido-1,2-thiazolidin-2-yl)phenyl]pyrrolo[2,1-f][1,2,4]triazin-2-yl}amino)-3,3-dimethyl-1,3-dihydro-2H-indol-2-one] |
| 100 to 1000 | < 100 |  |  | CN1CCN(c2ccc(Nc3ncc4ccc(NCc5cccnc5)n4n3)cc2)CC1 [Example 1164, N(2)-[4-(4-Methyl-piperazin-1-yl)-phenyl]-N(7)-pyridin-3-ylmethyl-pyrrolo[2,1-f][1,2,4]triazine-2,7-diamine] |
| 1000 to 10000 | < 100 |  |  | CN1CCN(C)C(c2cccc(Nc3ncc4ccc(-c5cccc(S(C)(=O)=O)c5)n4n3)c2)C1=O (centres unmarked) [Example 1080, 3-{3-[7-(3-Methanesulfonyl-phenyl)-pyrrolo[2,1-f][1,2,4]triazin-2-ylamino]-phenyl}-1,4-dimethyl-piperazin-2-one] |
| < 100 | 100 to 1000 |  |  | COc1cc(C2CCN(CC(=O)O)CC2)ccc1Nc1ncc2ccc(-c3ccccc3OC)n2n1 [Example 1278, (4-{3-Methoxy-4-[7-(2-methoxy-phenyl)-pyrrolo[2,1-f][1,2,4]triazin-2-ylamino]-phenyl}-piperidin-1-yl)-acetic acid] |
|  |  | > 10000 | > 10000 | COc1ccccc1-c1ccc2cnc(-c3nnn[nH]3)nn12 [Example 1502, 7-(2-Methoxy-phenyl)-2-(1H-tetrazol-5-yl)-pyrrolo[2,1-f][1,2,4]triazine] |
|  |  | 1000 to 10000 | < 100 | O=S1(=O)CCCN1c1cccc(-c2ccc3cnc(Nc4ccc5nc[nH]c5c4)nn23)c1 [Example 1511, N-(1H-Benzimidazol-6-yl)-7-[3-(1,1-dioxido-1,2-thiazolidin-2-yl)phenyl]pyrrolo[2,14][1,2,4]triazin-2-amine] |
| 1000 to 10000 | < 100 |  |  | CS(=O)(=O)Nc1ccccc1-c1ccc2cnc(Nc3cccc(OCCN4CCOCC4)c3)nn12 [Example 1002, N-(2-{2-[3-(2-Morpholin-4-yl-ethoxy)-phenylamino]-pyrrolo[2,1-f][1,2,4]triazin-7-yl}-phenyl)-methanesulfonamide] |
| < 100 | < 100 |  |  | C[C@H](O)CN1CCC(c2ccc(Nc3ncc4ccc(-c5cccc(NS(C)(=O)=O)c5)n4n3)cc2)CC1 [Example 957, N-[3-(2-{4-[1-((S)-2-Hydroxy-propyl)-piperidin-4-yl]-phenylamino}-pyrrolo[2,1-f][1,2,4]triazin-7-yl)-phenyl]-methanesulfonamide] |

Further lines, the molecule ahead of its results:

| SMILES | IC50 [1, 3] [nM] | IC50 [2, 4] [nM] | IC50 ([1]; ALK Kinase Inhibition) [nM] | IC50 ([2]; JAK2 Kinase Inhibition) [nM] |
| --- | --- | --- | --- | --- |
| CN1CCOc2ccc(Nc3ncc4ccc(-c5cccc(NS(C)(=O)=O)c5)n4n3)cc21 [Example 643, N-{3-[2-(4-Methyl-3,4-dihydro-2H-benzo[1,4]oxazin-6-ylamino)-pyrrolo[2,1-f][1,2,4]triazin-7-yl]-phenyl}methanesulfonamide] | 100 to 1000 | < 100 |  |  |
| COc1ccccc1-c1ccc2cnc(Nc3ccc4c(c3)N(C)CCO4)nn12 [Example 645, [7-(2-Methoxy-phenyl)-pyrrolo[2,1-f][1,2,4]triazin-2-yl]-(4-methyl-3,4-dihydro-2H-benzo[1,4]oxazin-6-yl)-amine] | 100 to 1000 | < 100 |  |  |
| NC(=O)c1ccccc1-c1ccc2cnc(Nc3ccc(N4CCOCC4)cc3)nn12 [Example 36, 2-[2-(4-Morpholin-4-yl-phenylamino)-pyrrolo[2,1-f][1,2,4]triazin-7-yl]-benzamide] |  |  | 1000 to 10000 | < 100 |
| O=C(NCCCN1CCOCC1)c1ccc(-c2ccc3cnc(Nc4ccc(N5CCOCC5)cc4)nn23)cc1 [Example 57, 4-[2-(4-Morpholin-4-yl-phenylamino)-pyrrolo[2,1-f][1,2,4]triazin-7-yl]-N-(3-morpholin-4-yl-propyl)-benzamide] |  |  | 1000 to 10000 | < 100 |
| c1cncc(-c2ccc3cnc(Nc4ccc(N5CCCC(N6CCOCC6)C5)cc4)nn23)c1 (centres unmarked) [Example 347, [4-(3-Morpholin-4-yl-piperidin-1-yl)-phenyl]-(7-pyridin-3-yl-pyrrolo[2,1-f][1,2,4]triazin-2-yl)-amine] |  |  | 100 to 1000 | < 100 |
| COc1ccccc1-c1cc(C#N)c2cnc(Nc3ccc(N4CCN(C)CC4)cc3)nn12 [Example 114, 7-(2-Methoxy-phenyl)-2-[4-(4-methyl-piperazin-1-yl)-phenylamino]-pyrrolo[2,1-f][1,2,4]triazine-5-carbonitrile] |  |  | 100 to 1000 | < 100 |
| CC1(C)CCC(=O)Nc2cc(Nc3ncc4ccc(-c5ccc(S(C)(=O)=O)cc5)n4n3)ccc21 [Example 92, 8-[7-(4-Methanesulfonyl-phenyl)-pyrrolo[2,1-f][1,2,4]triazin-2-ylamino]-5,5-dimethyl-1,3,4,5-tetrahydro-benzo[b]azepin-2-one] |  |  | 1000 to 10000 | < 100 |
| CN1CCN(c2ccc(Nc3ncc4c(Br)cc(-c5ccccc5)n4n3)cc2)CC1 [Example 100, (5-Bromo-7-phenyl-pyrrolo[2,1-f][1,2,4]triazin-2-yl)-[4-(4-methyl-piperazin-1-yl)-phenyl]-amine] |  |  | 100 to 1000 | < 100 |
| CC(=O)Nc1cc(Nc2ncc3ccc(-c4cccnc4)n3n2)ccc1C(C)C [Example 304, N-[2-Isopropyl-5-(7-pyridin-3-yl-pyrrolo[2,1-f][1,2,4]triazin-2-ylamino)-phenyl]-acetamide] |  |  | 1000 to 10000 | < 100 |
| COc1cc(CCN2CCN(C)CC2)ccc1Nc1ncc2ccc(-c3ccccc3OC)n2n1 [Example 488, {2-Methoxy-4-[2-(4-methyl-piperazin-1-yl)-ethyl]-phenyl}-[7-(2-methoxy-phenyl)-pyrrolo[2,1-f][1,2,4]triazin-2-yl]-amine] | < 100 | 100 to 1000 |  |  |
| COc1cc2c(cc1Nc1ncc3ccc(-c4cccc5c4OCC5)n3n1)CCN(CC(N)=O)CC2 [Example 708, 2-{7-[7-(2,3-Dihydro-benzofuran-7-yl)-pyrrolo[2,1-f][1,2,4]triazin-2-ylamino]-8-methoxy-1,2,4,5-tetrahydro-3-benzazepin-3-yl}-acetamide] | < 100 | 100 to 1000 |  |  |
| COc1cc2c(cc1Nc1ncc3ccc(-c4cccc5c4OCC5)n3n1)CCN(C[C@@H](C)O)CC2 [Example 522, (R)-1-{7-[7-(2,3-Dihydro-benzofuran-7-yl)-pyrrolo[2,1-f]triazin-2-ylamino]-8-methoxy-1,2,4,5-tetrahydro-benzo[d]azepin-3-yl}-propan-2-ol] | < 100 | 100 to 1000 |  |  |
| COCCN1CCc2ccc(Nc3ncc4ccc(-c5ccccc5OC)n4n3)cc2CC1 [Example 30, [3-(2-Methoxy-ethyl)-2,3,4,5-tetrahydro-1H-benzo[d]azepin-7-yl]-[7-(2-methoxy-phenyl)-pyrrolo[2,1-f][1,2,4]triazin-2-yl]-amine] |  |  | < 100 | < 100 |
| COc1ccc(OC)c(-c2ccc3cnc(Nc4ccc(N5CCOCC5)cc4)nn23)c1 [Example 424, [7-(2,5-Dimethoxy-phenyl)-pyrrolo[2,1-f][1,2,4]triazin-2-yl]-(4-morpholin-4-yl-phenyl)-amine] |  |  | 100 to 1000 | < 100 |
| COc1cc(C2CCN(C[C@H](O)CO)CC2)ccc1Nc1ncc2ccc(-c3cccc(S(=O)(=O)NC(C)(C)C)c3)n2n1 [Example 695, N-tert-Butyl-3-(2-{4-[1-((S)-2,3-dihydroxy-propyl)-piperidin-4-yl]-2-methoxy-phenylamino}-pyrrolo[2,1-f][1,2,4]triazin-7-yl)-benzenesulfonamide] | < 100 | 100 to 1000 |  |  |
| COc1ccccc1-c1ccc2cnc(Nc3ccc(C(C)C)c(NC(C)=O)c3)nn12 [Example 301, N-{2-Isopropyl-5-[7-(2-methoxy-phenyl)-pyrrolo[2,1-f][1,2,4]triazin-2-ylamino]-phenyl}-acetamide] |  |  | 100 to 1000 | < 100 |
